Measurements published in patent US20240181087A1, “COMPOSITION FOR CONTRAST IMAGING OF CANCER” (ASTELLAS PHARMA INC., priority 2021, published 2024).

Experiments:
mouse tumor cell 4T1 = test: near-infrared fluorescence imaging after administration into tumor, 4T1 breast cancer model; assay type: in vivo
Description: (§1) A syngeneic tumor transplanted mouse model was created as follows referring to “Gan-Shikkan Model no Sakusei to Riyo (Cancer-Creation and Use of Disease Model)” (Takuro Nakamura, LIC, 2012). • (Breast Cancer) A tumor model was created by breeding a normal Balb/c mouse (weight: about 20 g to 30 g) for 14 days with mouse tumor cell 4T1 subcutaneously administered thereto. • (Colorectal Cancer) A tumor model was created by breeding a normal Balb/c mouse (weight: about 20 g to 30 g) for 14 days with CT26 (colorectal cancer cell) subcutaneously administered thereto. • (Skin Cancer) A tumor model was created by breeding a C57BL/6 mouse (weight: about 15 g to 20 g) for 14 days with B16F1 (skin cancer cell) subcutaneously administered thereto.
(§2) Subsequently, to the tumor of each of the model mice, 0.02 to 0.05 mL of a saline containing the compound III or ICG (concentration of the compound III or ICG: 1 mg/mL) was administered, and fluorescence imaging was performed transdermally with a near-infrared fluorescence camera (Fluobeam, manufactured by Fluoptics, http://www.solve-net.com/info/wp-content/uploads/downloads/2013/12/Fluobeam.pdf) (excitation wavelength: 780 nm, detection wavelength: 800 nm or more).

RenCa cell [1] = test: near-infrared fluorescence imaging of lung, lung cancer-bearing mouse (RenCa, tail vein inoculation); assay type: in vivo; conditions: tail vein 120 nmol/kg; after 10 minutes; excised lung
Procedure: Metastatic spontaneous renal cell carcinoma line from BALB/c mouse, RenCa cell (1×10^6 cells, purchased from CLS Cell Lines Service GmbH, Eppelheim, Germany) was prepared in RPMI-1640 medium (fetal bovine serum free, FUJIFILM Wako Pure Chemical Corporation), the resultant was inoculated in a mouse (BALB/cCrSlc, SPF, female, 7 weeks old) by tail vein administration under anesthesia by subcutaneous administration of ketamine (75 mg/kg) and medetomidine (1 mg/kg), and the resultant mouse was bred for 18 days to cause lung cancer therein. The mouse was anesthetized by subcutaneous administration of ketamine (75 mg/kg) and medetomidine (1 mg/kg), and the compound III (120 nmol/kg weight) was administered through the tail vein. After 10 minutes, the lung was excised to perform near-infrared fluorescence imaging with a near-infrared fluorescence imaging device (pde-neo, manufactured by Hamamatsu Photonics K.K.).

B16F1 (skin cancer cell) = test: near-infrared fluorescence imaging after administration into tumor, B16F1 skin cancer model; assay type: in vivo, mouse; conditions: 0.02 to 0.05 mL of 1 mg/mL saline, transdermal imaging
Description: as §1, §2

[2] = test system: Human stomach cancer cell MKN45-Luc; test: near-infrared fluorescence observation of abdominal cavity, peritoneal dissemination mouse model; assay type: in vivo; conditions: tail vein 40 nmol/kg, 10 minutes
Description: Human stomach cancer cell MKN45-Luc (5×10^6 cells, purchased from JCRB cell bank of National Institutes of Biomedical Innovation, Health and Nutrition) was intraperitoneally injected into a nude mouse (BALB/cSlc-nu, SPF, male, weight: about 20 g), and the resultant mouse was bred for 15 days to create a nude mouse having peritoneal dissemination. […] The near-infrared fluorescence was not emitted from the abdominal cavity of the normal mouse (FIG. 22).

[3] = test system: CT26 (colorectal cancer cell); test: near-infrared fluorescence imaging after administration into tumor, CT26 colorectal cancer model; assay type: in vivo, mouse; conditions: 0.02 to 0.05 mL of 1 mg/mL saline, transdermal imaging
Description: as §1, §2

RenCa cell [4] = test: near-infrared fluorescence imaging of liver, liver cancer-bearing mouse (RenCa, intravenous inoculation); assay type: in vivo; conditions: tail vein 120 nmol/kg, after 10 minutes, laparotomy
Procedure: Metastatic spontaneous renal cell carcinoma line from BALB/c mouse, RenCa cell (1×10^6 cells, purchased from CLS Cell Lines Service GmbH, Eppelheim, Germany) was intravenously inoculated into a mouse (BALB/cCrSlc, SPF, female, 7 weeks old) under anesthesia by subcutaneous administration of ketamine (75 mg/kg) and medetomidine (1 mg/kg), and the resultant mouse was bred for 18 days to cause liver cancer therein. The mouse was anesthetized by subcutaneous administration of ketamine (75 mg/kg) and medetomidine (1 mg/kg), and the compound III (120 nmol/kg weight) was administered through the tail vein. After 10 minutes, laparotomy was conducted to perform near-infrared fluorescence imaging with a near-infrared fluorescence imaging device (pde-neo, manufactured by Hamamatsu Photonics K.K.). Near-infrared fluorescence of the compound III from a liver normal tissue was strong, light emission of the compound III from a liver cancer site (framed site in the right image) was very weak, and thus, the normal site and the cancer site could be distinguished from each other depending on the light emission (FIG. 19).

RenCa kidney cancer cell = test: near-infrared fluorescence observation of kidney, kidney cancer mouse (RenCa in left kidney); assay type: in vivo; conditions: tail vein 12 nmol/kg, after 10 minutes
Procedure: Under anesthesia by subcutaneous administration of ketamine (75 mg/kg) and medetomidine (1 mg/kg), RenCa kidney cancer cell (5×10^6 cells, purchased from CLS Cell Lines Service GmbH, Eppelheim, Germany) was transplanted into the left kidney of a mouse (weight: about 20 g), and the resultant mouse was bred for 9 to 14 days to create a kidney cancer mouse. […] The fluorescence from a cancer tissue was weak, the fluorescence from a normal tissue was strong, and thus, the cancer tissue and the normal tissue could be distinguished from each other (FIG. 24).

[5] = MKN45-Luc peritoneal dissemination nude mouse

For `COC1=C(/C=C/C2=[N+](CCC(=O)NCCCO[C@H]3[C@H]4O[C@H]5[C@H](O)[C@@H](O)[C@@H](O[C@H]6[C@H](O)[C@@H](O)[C@@H](O[C@H]7[C@H](O)[C@@H](O)[C@@H](O[C@H]8[C@H](O)[C@@H](O)[C@@H](O[C@H]9[C@H](O)[C@@H](O)[C@@H](O[C@H]%10[C@H](O)[C@@H](O)[C@@H](O[C@@H]([C@@H]3O)[C@@H](CO)O4)O[C@@H]%10CO)O[C@@H]9CO)O[C@@H]8CO)O[C@@H]7CO)O[C@@H]6CO)O[C@@H]5CO)c3ccc4ccccc4c3C2(C)C)CCC/C1=C\C=C1\N(CCC(=O)NCCCO[C@H]2[C@H]3O[C@H]4[C@H](O)[C@@H](O)[C@@H](O[C@H]5[C@H](O)[C@@H](O)[C@@H](O[C@H]6[C@H](O)[C@@H](O)[C@@H](O[C@H]7[C@H](O)[C@@H](O)[C@@H](O[C@H]8[C@H](O)[C@@H](O)[C@@H](O[C@H]9[C@H](O)[C@@H](O)[C@@H](O[C@@H]([C@@H]2O)[C@@H](CO)O3)O[C@@H]9CO)O[C@@H]8CO)O[C@@H]7CO)O[C@@H]6CO)O[C@@H]5CO)O[C@@H]4CO)c2ccc3ccccc3c2C1(C)C.[Cl-]` [compound III, 3-(3-{[3-(cyclomaltoheptaose-21-O-yl)propyl]amino}-3-oxopropyl)-2-{(1E)-2-[(3E)-3-{(2E)-2-[3-(3-{[3-(cyclomaltoheptaose-21-O-yl)propyl]amino}-3-oxopropyl)-1,1-dimethyl-1,3-dihydro-2H-benzo[e]indol-2-ylidene]ethylidene}-2-methoxycyclohexa-1-en-1-yl]ethene-1-yl}-1,1-dimethyl-1H-benzo[e]indol-3-ium chloride], the “retention in tumor (fluorescence imaging)” value (shortened to “retention in tumor”) (mouse tumor cell 4T1; 4T1 breast cancer model, 0.02 to 0.05 mL of 1 mg/mL saline, transdermal imaging) was “retained in the tumor”, the “drawing of tumor outline / exudation to surrounding tissues” value (mouse tumor cell 4T1; 4T1 tumor, 1 mg/mL saline, fluorescence imaging, incl. during tumor excision operation) was “did not exude to surrounding tissues but the outline of the tumor was drawn” and the “intensity of near-infrared fluorescence in lung cancer site” value (RenCa cell [1]) was “low”. For the same molecule, the “retention in tumor” value (B16F1 (skin cancer cell)) was “retained in the tumor”, the “near-infrared fluorescence of dissemination present in the entire abdominal cavity” value [2, 5] was “emitted the near-infrared fluorescence” and the “near-infrared fluorescence of visually recognizable cancer tissue (nearly necrotic)” value [2, 5] was “did not emit the near-infrared fluorescence”. For the same molecule, the “near-infrared fluorescence from abdominal cavity of normal mouse” value ([2]; normal nude mouse) was “not emitted”, the “retention in tumor” value [3] was “retained in the tumor” and the “light emission from liver cancer site” value (RenCa cell [4]) was “very weak”. The “near-infrared fluorescence from liver normal tissue” value (RenCa cell [4]) was “strong”, the “fluorescence from kidney cancer tissue” value (RenCa kidney cancer cell) was “weak” and the “fluorescence from normal kidney tissue” value (RenCa kidney cancer cell) was “strong”.
